Experimental data published in ChEMBL document CHEMBL1123651, “alpha-Melanotropin: the minimal active sequence in the frog skin bioassay” (J Med Chem, 1987).
Where a SMILES comes first, the peptide text is derived from it. [ ]: non-standard residue; d: D form. Nle = CCCC[C@H](N)C(=O)O

System: frog
Test: In vitro potency relative to alpha-melanotropin (alpha-MSH), in the frog (Rana pipiens) skin bioassay
Assay type: functional

| Compound | Relative potency |
| --- | --- |
| CC(=O)N[C@@H](CCCCN)C(N)=O | 0 |
| CC(=O)N[C@@H](Cc1c[nH]cn1)C(=O)N[C@@H](Cc1ccccc1)C(=O)N[C@@H](CCCN=C(N)N)C(=O)N[C@@H](Cc1c[nH]c2ccccc12)C(N)=O | 5e-06 |
| CCCC[C@H](NC(C)=O)C(=O)N[C@@H](CCC(=O)O)C(=O)N[C@@H](Cc1c[nH]cn1)C(=O)N[C@@H](Cc1ccccc1)C(=O)N[C@@H](CCCN=C(N)N)C(=O)N[C@@H](Cc1c[nH]c2ccccc12)C(=O)NCC(=O)N[C@@H](CCCCN)C(=O)N1CCC[C@H]1C(=O)N[C@H](C(N)=O)C(C)C | 0.4 |
| CCCC[C@H](NC(C)=O)C(=O)N[C@@H](CCC(=O)O)C(=O)N[C@@H](Cc1c[nH]cn1)C(=O)N[C@@H](Cc1ccccc1)C(=O)N[C@@H](CCCN=C(N)N)C(=O)N[C@@H](Cc1c[nH]c2ccccc12)C(=O)NCC(N)=O | 0.002 |
| CSCC[C@H](NC(C)=O)C(=O)N[C@@H](CCC(=O)O)C(=O)N[C@@H](Cc1c[nH]cn1)C(=O)N[C@@H](Cc1ccccc1)C(=O)N[C@@H](CCCN=C(N)N)C(=O)N[C@@H](Cc1c[nH]c2ccccc12)C(=O)NCC(N)=O | 0.0005 |
| CC(=O)N[C@@H](Cc1ccccc1)C(=O)N[C@@H](CCCN=C(N)N)C(=O)N[C@@H](Cc1c[nH]c2ccccc12)C(=O)NCC(N)=O (Ac-FRWG-NH2) | 0 |
| CC(=O)N[C@@H](Cc1c[nH]cn1)C(=O)N[C@@H](Cc1ccccc1)C(=O)N[C@@H](CCCN=C(N)N)C(N)=O (Ac-His-Phe-Arg-NH2) | 0 |
| CC(=O)N[C@@H](Cc1c[nH]cn1)C(=O)N[C@@H](Cc1ccccc1)C(N)=O (Ac-His-Phe-NH2) | 0 |
| CC(=O)N[C@@H](CCCCN)C(=O)N1CCC[C@H]1C(=O)N[C@H](C(N)=O)C(C)C (Ac-Lys-Pro-Val-NH2) | 0 |
| CC(=O)N[C@@H](Cc1ccccc1)C(=O)N[C@@H](CCCN=C(N)N)C(N)=O (Ac-Phe-Arg-NH2) | 0 |
| CCCC[C@H](NC(C)=O)C(=O)N[C@@H](CCC(=O)O)C(=O)N[C@@H](Cc1c[nH]cn1)C(=O)N[C@@H](Cc1ccccc1)C(=O)N[C@@H](CCCN=C(N)N)C(=O)N[C@@H](Cc1c[nH]c2ccccc12)C(=O)NCC(=O)N[C@@H](CCCCN)C(N)=O (Ac-[Nle]EHFRWGK-NH2) | 0.002 |
| CCCC[C@H](NC(C)=O)C(=O)N[C@@H](CCC(=O)O)C(=O)N[C@@H](Cc1c[nH]cn1)C(=O)N[C@@H](Cc1ccccc1)C(=O)N[C@@H](CCCN=C(N)N)C(=O)N[C@@H](Cc1c[nH]c2ccccc12)C(=O)NCC(=O)N[C@@H](CCCCN)C(=O)N1CCC[C@H]1C(N)=O (Ac-[Nle]EHFRWGKP-NH2) | 0.18 |
| N=C(N)NCCC[C@H](NC(=O)[C@@H](N)Cc1ccccc1)C(=O)O (H-Phe-Arg-OH) | 0 |
| Ac-EHFRWG-NH2 | 0.00014 |
| Ac-HFRWG-NH2 | 8e-05 |
| Ac-MEHFRWGKP-NH2 | 0.18 |
